One compound from US20120225862A1, “HETEROARYL BENZAMIDES, COMPOSITIONS AND METHODS OF USE” (AUCKLAND UNIVSERVICES LIMITED, priority 2009, published 2012) can be followed below.

One assay deals with RCC4/VHL. Description: Clonogenic survival, RCC4/VHL. The assay is classed as cell-based, human. The conditions noted are these: RCC4/VHL (wild-type VHL), 5 μM, 10 days. The method, then: Three hundred cells were plated into 60-mm tissue culture dishes in DMEM. The next day, cells were treated with vehicle or drug and were further incubated for an additional 10 days. After 10 days, the media was removed and colonies were fixed and stained in 95% ethanol and 0.1% crystal violet for 15 minutes. The stain was removed and plates were washed in deionized water. Colonies were quantified. All conditions were measured in triplicate and all experiments were performed in triplicate.
For 2,3-bis[2-methoxy-4-nitro-5-sulfophenyl]-2H-tetrazolium-5-carboxanilide (XTT) assays, five thousand cells were plated in 96-well plates. The next day, vehicle (DMSO) or drug was added by serial dilution. Four days later, media were aspirated, XTT solution (0.3 mg/ml of XTT (Sigma), 2.65 mg/ml N-methyl dibenxopyrazine methyl sulfate (Simga) in phenol red-free media) was added, and the plates were incubated at 37° C. for 1-2 hours. Metabolism of XTT was quantified by measuring the absorbance at 450 nm. IC50s were calculated using linear interpolation. For clonogenic survival assays, three hundred cells were plated per 60 mm tissue culture dish. The cells were allowed to attach overnight and then treated with vehicle or drug for 14 days. […] All conditions were measured in triplicate and each experiment was done in duplicate or triplicate. […] Live and dead cells were counted on a hematocytometer.

A further assay deals with T1, Hck (Homo sapiens, UniProt P08631).
T1 construct: purchased Millipore (KinaseProfiler service)
T1 sequence (P08631 whole entry, species assumed): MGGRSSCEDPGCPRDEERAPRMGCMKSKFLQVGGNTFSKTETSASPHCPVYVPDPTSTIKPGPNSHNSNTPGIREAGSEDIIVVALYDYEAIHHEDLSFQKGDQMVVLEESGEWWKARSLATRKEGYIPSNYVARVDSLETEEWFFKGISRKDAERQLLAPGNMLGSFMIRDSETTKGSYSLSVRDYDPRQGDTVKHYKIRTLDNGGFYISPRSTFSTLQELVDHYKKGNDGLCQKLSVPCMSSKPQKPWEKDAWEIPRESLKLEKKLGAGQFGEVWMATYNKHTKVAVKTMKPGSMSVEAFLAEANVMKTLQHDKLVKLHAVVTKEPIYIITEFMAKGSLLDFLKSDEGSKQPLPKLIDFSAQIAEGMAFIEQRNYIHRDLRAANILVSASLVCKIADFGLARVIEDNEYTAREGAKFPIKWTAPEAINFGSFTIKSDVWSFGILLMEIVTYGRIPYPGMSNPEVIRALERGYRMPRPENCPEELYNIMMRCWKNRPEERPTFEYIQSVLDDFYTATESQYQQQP
Description: In vitro kinase activity (Millipore KinaseProfiler): Hck. Type of assay: biochemical. The conditions noted are these: no head or unit printed. The protocol: (§1) All cells were grown in DMEM+10% FCS. ACHN and ACHN shVHL were a kind gift from George V. Thomas (UCLA). HIF overexpressing clones were described previously. Transfection of RNA oligos were performed with DnarmaFECT Reagent 1 (Dharmcon), according to manufacturer's directions. ON-TARGETplus SMART pools against HIF-1β/ARNT were purchased from Dharmacon. Glut1 was detected with anti-GLUT1 antibody from NeoMarkers/LabVision/Fisher. Pyruvate/lactate levels and hexokinase activity were both measured by fluorometric assay (BioVision and Sigma-Aldrich, respectively). ATP levels were measured by bioluminescence assay (ATP Determination Kit from Molecular Probes/Invitrogen). In vitro kinase activities were performed by Millipore KinaseProfiler. Affi-Gel 10 (BioRad) activated affinity media was coupled to analogs to generate immobilized affinity linkers.
(§2) We next wanted to investigate the differential glucose uptake between RCCs with and without VHL treated with compound 47 that subsequently lead to the selective death of VHL-deficient cells. We first examined the message levels of the two main glucose transporters, GLUT1 and GLUT2 by quantitative real-time PCR. GLUT1 is an inducible, high-affinity glucose transporter, while GLUT2 is the glucose transporter responsible for basal glucose uptake. […] Cells deficient in VHL had very low levels of GLUT2 that could barely be detected (FIG. 3J). […]

Another assay addresses T2, JAK2 (Homo sapiens, UniProt O60674).
T2 construct: purchased Millipore (KinaseProfiler service)
Kind of assay: In vitro kinase activity (Millipore KinaseProfiler): JAK2. Type of assay: biochemical. The conditions noted are these: no head or unit printed. The method, then: as §1, §2

T2 sequence (O60674 whole entry, species assumed): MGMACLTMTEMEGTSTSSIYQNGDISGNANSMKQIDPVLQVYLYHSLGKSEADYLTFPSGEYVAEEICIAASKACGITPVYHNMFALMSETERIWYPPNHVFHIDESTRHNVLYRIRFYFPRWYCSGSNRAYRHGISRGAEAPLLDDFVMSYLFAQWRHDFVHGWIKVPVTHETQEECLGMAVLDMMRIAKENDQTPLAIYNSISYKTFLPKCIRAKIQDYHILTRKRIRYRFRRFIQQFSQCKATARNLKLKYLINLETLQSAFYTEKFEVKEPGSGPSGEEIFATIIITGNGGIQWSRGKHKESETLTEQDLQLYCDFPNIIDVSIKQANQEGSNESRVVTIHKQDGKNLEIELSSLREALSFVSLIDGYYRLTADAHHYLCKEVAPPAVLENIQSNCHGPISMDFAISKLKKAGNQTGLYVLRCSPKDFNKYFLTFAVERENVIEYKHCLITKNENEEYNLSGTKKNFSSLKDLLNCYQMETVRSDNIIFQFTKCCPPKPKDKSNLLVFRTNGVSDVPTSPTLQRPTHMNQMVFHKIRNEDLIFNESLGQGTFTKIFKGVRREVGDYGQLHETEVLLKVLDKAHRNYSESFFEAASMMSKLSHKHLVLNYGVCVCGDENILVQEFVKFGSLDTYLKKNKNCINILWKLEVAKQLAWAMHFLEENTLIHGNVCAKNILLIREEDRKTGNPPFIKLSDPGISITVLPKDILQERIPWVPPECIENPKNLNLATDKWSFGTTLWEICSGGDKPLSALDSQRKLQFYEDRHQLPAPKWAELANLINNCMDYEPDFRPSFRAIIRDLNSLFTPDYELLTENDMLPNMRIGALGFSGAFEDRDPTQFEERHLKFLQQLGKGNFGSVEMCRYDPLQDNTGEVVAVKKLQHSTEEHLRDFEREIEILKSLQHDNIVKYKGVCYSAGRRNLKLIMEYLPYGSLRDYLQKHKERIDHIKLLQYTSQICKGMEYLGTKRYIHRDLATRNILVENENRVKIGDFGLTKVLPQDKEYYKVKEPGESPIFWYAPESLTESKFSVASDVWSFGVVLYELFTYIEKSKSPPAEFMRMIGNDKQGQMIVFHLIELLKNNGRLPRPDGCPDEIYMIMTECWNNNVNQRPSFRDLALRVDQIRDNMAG

On to `CC(C)(C)c1ccc(S(=O)(=O)NCc2ccc(C(=O)Nc3cccnc3)cc2)cc1` [Example 38, 4-((4-tert-Butylphenylsulfonamido)methyl)-N-(pyridin-3-yl)benzamide], for which the “clonogenic survival of RCC4/VHL” value in the assay with RCC4/VHL is on record as “relatively unaffected”. Moreover, the Hck kinase activity on Hck amounted to 84%. For the same compound, the JAK2 kinase activity at JAK2 is 113.
